Laboratory results as given in patent US7807691B2, “Substituted N-arylpyrrolidines as selective androgen receptor modulators” (Eli Lilly and Company, priority 2005, dated 2010).
Like-named read-outs stand apart in the source and are kept apart here.

How the values were obtained:
[1] = target: T1, human AR (androgen receptor) (Homo sapiens, UniProt P10275); experiment: Steroid hormone nuclear receptor binding assay (AR binding)
T1 construct: expressed in transfected cells; host or cells: 293 cells (293-AR lysate)
T1 sequence (P10275 1-920): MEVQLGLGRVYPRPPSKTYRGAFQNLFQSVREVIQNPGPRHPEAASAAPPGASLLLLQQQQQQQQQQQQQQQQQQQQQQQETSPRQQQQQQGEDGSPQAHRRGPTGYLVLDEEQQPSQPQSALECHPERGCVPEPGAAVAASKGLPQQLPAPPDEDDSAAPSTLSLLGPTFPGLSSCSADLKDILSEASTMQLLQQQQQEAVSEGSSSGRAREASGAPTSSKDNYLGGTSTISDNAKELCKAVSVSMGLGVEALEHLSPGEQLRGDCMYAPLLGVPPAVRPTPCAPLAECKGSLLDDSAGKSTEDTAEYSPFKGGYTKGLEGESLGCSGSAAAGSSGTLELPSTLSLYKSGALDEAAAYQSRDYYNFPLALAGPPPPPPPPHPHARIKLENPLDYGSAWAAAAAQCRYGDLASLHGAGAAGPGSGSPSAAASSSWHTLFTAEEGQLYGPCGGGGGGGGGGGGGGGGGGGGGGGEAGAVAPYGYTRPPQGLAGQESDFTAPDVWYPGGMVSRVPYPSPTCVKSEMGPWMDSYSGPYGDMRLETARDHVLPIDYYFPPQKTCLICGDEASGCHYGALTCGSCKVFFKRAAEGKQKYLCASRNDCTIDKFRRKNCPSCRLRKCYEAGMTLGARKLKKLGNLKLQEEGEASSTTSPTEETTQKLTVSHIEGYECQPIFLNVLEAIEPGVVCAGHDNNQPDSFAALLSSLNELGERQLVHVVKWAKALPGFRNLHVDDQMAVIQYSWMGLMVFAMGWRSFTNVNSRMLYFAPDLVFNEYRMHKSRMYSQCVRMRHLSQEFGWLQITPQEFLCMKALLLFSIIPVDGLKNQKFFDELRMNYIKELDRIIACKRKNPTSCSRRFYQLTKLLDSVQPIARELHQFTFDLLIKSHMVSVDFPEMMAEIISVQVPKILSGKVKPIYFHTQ
Experimental: Cell lysates from 293 cells overexpressing human GR (glucocorticoid receptor), AR (androgen receptor), MR (mineralocorticoid receptor) or PR (progesterone receptor) are used for competition binding assays to determine Ki values for test compounds. Briefly, competition binding assays are run in a buffer containing 20 mM Hepes, pH 7.6, 0.2 mM EDTA, 75 mM NaCl, 1.5 mM MgCl2, 20% glycerol, 20 mM sodium molybdate, 0.2 mM DTT, 20 ug/ml aprotinin and 20 ug/ml leupeptin, using either 0.3 nM ^3H-dexamethasone for GR binding, 0.36 nM ^3H-methyltrienolone for AR binding, 0.25 nM ^3H-aldosterone for MR binding, or 0.29 nM ^3H-methyltrienolone for PR binding, and either 20 ug 293-GR lysate, 22 ug 293-AR lysate, 20 ug 293-MR lysate or 40 ug 293-PR lysate per well. Competing compounds are added at various concentrations ranging from about 0.01 nM to 10 μM. Non-specific binding is determined in the presence of 500 nM dexamethasone for GR binding, 500 nM aldosterone for MR binding, or 500 nM methyltrienolone for AR and PR binding. The binding reaction (140 μl) is incubated for overnight at 4° C., then 70 μl of cold charcoal-dextran buffer (containing per 50 ml of assay buffer, 0.75 g of charcoal and 0.25 g of dextran) is added to each reaction. Plates are mixed 8 minutes on an orbital shaker at 4° C. Plates are then centrifuged at 3,000 rpm at 4° C. for 10 minutes. An aliquot of 120 μl of the mix is transferred to another 96-well plate and 175 μl of Wallac Optiphase “Hisafe 3” scintillation fluid is added to each well. Plates are sealed and shaken vigorously on an orbital shaker. After an incubation of 2 hrs, plates are read in a Wallac Microbeta counter. The data is used to calculate an IC50 and % Inhibition at 10 μM. The Kd for ^3H-dexamethasone for GR binding, ^3H-methyltrienolone for AR binding, ^3H-aldosterone for MR binding, or ^3H-methyltrienolone for PR binding, is determined by saturation binding. The IC50 values for test compounds are converted to Ki using Cheng-Prusoff equation and the Kd determined by saturation binding assay.
Binding assay protocols for steroid hormone nuclear receptors similar to those described above can be readily designed by the ordinarily skilled artisan.

[2] = target: T2, human androgen receptor (AR) (Homo sapiens, UniProt P10275); experiment: C2C12 AR/ARE reporter assay; type: cell-based; conditions: for EC50: mouse myoblast C2C12 cells, luciferase reporter, 48 h; for C2C12 % Efficacy: versus maximum stimulation obtained with 10 nM methyltrienolone
T2 construct: expressed in transfected cells; host or cells: mouse myoblast C2C12 cells, transiently co-transfected with FuGENE
T2 sequence (P10275 1-920): T1 sequence (P10275 1-920)
Experimental: As an indicator of agonist activity in muscle tissue, the C2C12 AR/ARE reporter assay is performed. Briefly, mouse myoblast C2C12 cells are co-transfected using FuGENE™. […] Cells are transfected in T150 cm^2 flasks in DMEM media with 4% or 10% Fetal Bovine Serum (FBS). After a 5 hour incubation, transfected cells are trypsinized, plated in 96 well dishes in DMEM media containing 10% charcoal-stripped FBS, incubated for 2 h and then exposed to various concentrations of test compounds ranging from about 0.01 nM to 10 μM. After 48 h of incubations with compounds, cells are lysed and luciferase activity is determined using standard techniques. Data is fit to a 4 parameter-fit logistics to determine EC50 values. The % efficacy is determined versus maximum stimulation obtained with 10 nM methyltrienolone. […]

[3] = AR binding Ki (nM), 293-AR cell lysate, 3H-methyltrienolone competition
[4] = C2C12, read-out: C2C12 % Efficacy, versus maximum stimulation obtained with 10 nM methyltrienolone, average

| SMILES | Ki [1, 3] [nM] | Emax [2, 4] [%] | EC50 ([2]; C2C12 EC50(nM), average) [nM] | C2C12 % Efficacy ([2]; average) [%] | Ki [1] [nM] | Emax ([2]; C2C12, read-out: C2C12 % Efficacy) [%] | EC50 ([2]; average, read-out: C2C12 EC50) [nM] |
| --- | --- | --- | --- | --- | --- | --- | --- |
| CCC1CCC(c2ccccc2)N1c1ccc(C#N)c(Cl)c1 (mixture of isomers) [Example 22, 2-Chloro-4-(2-ethyl-5-phenyl-pyrrolidin-1-yl)-benzonitrile] | 4.9 | 85.5 | 17.7 |  |  |  |  |
| CCC1CCC(c2ccccc2)N1c1ccc(C#N)c(Cl)c1C (mixture of isomers) [Example 23, 2-Chloro-4-(2-ethyl-5-phenyl-pyrrolidin-1-yl)-3-methyl-benzonitrile] | 27.1 | 70.1 | 131 |  |  |  |  |
| CCC1CCC(c2ccccc2)N1c1ccc(C#N)c(Cl)c1 (single isomer, unassigned) [Example 22a, 2-Chloro-4-(2-ethyl-5-phenyl-pyrrolidin-1-yl)-benzonitrile] | 122 |  | 32.4 | 92.4 |  |  |  |
| CCC1CCC(c2ccccc2)N1c1ccc(C#N)c(Cl)c1 (single isomer, unassigned) [Example 22b, 2-Chloro-4-(2-ethyl-5-phenyl-pyrrolidin-1-yl)-benzonitrile] | 39.9 |  | 25 | 80.6 |  |  |  |
| CCC1CCC(c2ccccc2)N1c1ccc(C#N)c(Cl)c1 (single isomer, unassigned) [Example 22c, 2-Chloro-4-(2-ethyl-5-phenyl-pyrrolidin-1-yl)-benzonitrile] | 39.8 |  | 135 | 61.3 |  |  |  |
| CCC1CCC(c2ccccc2)N1c1ccc(C#N)c(Cl)c1 (single isomer, unassigned) [Example 22d, 2-Chloro-4-(2-ethyl-5-phenyl-pyrrolidin-1-yl)-benzonitrile] | 2.2 |  | 6.1 | 66.5 |  |  |  |
| Cc1c(N2CCCC2c2ccccc2)ccc(C#N)c1Cl (stereo not drawn) [Example 1, 2-Chloro-3-methyl-4-(2-phenyl-pyrrolidin-1-yl)-benzonitrile] | 1.4 | 67.6 | 1.2 |  |  |  |  |
| Cc1c(N2CCCC2c2ccc(Cl)cc2)ccc(C#N)c1Cl (stereo not drawn) [Example 2] | 4.3 | 61 | 36.7 |  |  |  |  |
| Cc1c(N2CCCC2c2ccc(F)cc2)ccc(C#N)c1Cl (stereo not drawn) [Example 3] | 2.7 | 51.1 | 5.1 |  |  |  |  |
| Cc1c(N2CC(C)(C)CC2c2ccccc2)ccc(C#N)c1Cl (stereo not drawn) [Example 4] | 6.6 | 84.9 | 11.2 |  |  |  |  |
| COc1cccc(C2CCCN2c2ccc(C#N)c(Cl)c2C)c1 (stereo not drawn) [Example 5] | 1.1 | 102 | 0.9 |  |  |  |  |
| COc1ccccc1C1CCCN1c1ccc(C#N)c(Cl)c1C (stereo not drawn) [Example 6] | 7 | 81.7 | 177 |  |  |  |  |
| COc1ccc(C2CCCN2c2ccc(C#N)c(Cl)c2C)cc1 (stereo not drawn) [Example 7] | 3.4 | 68.9 | 28.3 |  |  |  |  |
| Cc1c(N2CCCC2c2ccccc2C(F)(F)F)ccc(C#N)c1Cl (stereo not drawn) [Example 8] | 72.9 | -38.5 |  |  |  |  |  |
| Cc1c(N2CCCC2c2ccccn2)ccc(C#N)c1Cl (stereo not drawn) [Example 10] | 4.7 | 79.8 | 40.8 |  |  |  |  |
| Cc1c(N2CCCC2c2ccncc2)ccc(C#N)c1Cl (stereo not drawn) [Example 11] | 6 | 76.8 | 6.8 |  |  |  |  |
| CSc1cccc(C2CCCN2c2ccc(C#N)c(Cl)c2C)c1 (stereo not drawn) [Example 13] | 5.8 | 84.7 | 9.7 |  |  |  |  |
| CSc1ccc(C2CCCN2c2ccc(C#N)c(Cl)c2C)cc1 (stereo not drawn) [Example 14] | 13.4 | 73.1 | 21.2 |  |  |  |  |
| Cc1c(N2CCCC2c2cncnc2)ccc(C#N)c1Cl (stereo not drawn) [Example 15] | 2.8 | 85.1 | 0.4 |  |  |  |  |
| N#Cc1ccc(N2CCCC2c2cccnc2)cc1Cl (stereo not drawn) [Example 16] | 17.4 | 42.6 | 109 |  |  |  |  |
| CC1(c2ccc3c(c2)OCO3)CCCN1c1ccc(C#N)c(Cl)c1 (stereo not drawn) [Example 17] | 27.3 | 13.2 |  |  |  |  |  |
| COc1cccc(C2(C)CCCN2c2ccc(C#N)c(Cl)c2)c1 (stereo not drawn) [Example 18] | 24.4 | 77.9 | 9.8 |  |  |  |  |
| N#Cc1ccc(N2CCCC2c2ccc3c(c2)OCO3)cc1C(F)(F)F (stereo not drawn) [Example 19] | 17.6 | -12.4 |  |  |  |  |  |
| CC1(c2ccc3c(c2)OCO3)CCCN1c1ccc(C#N)c(C(F)(F)F)c1 (stereo not drawn) [Example 20] |  |  |  |  | 21.1 | 4.8 | 516 |
| Cc1c(N2CCCC2c2cccc(S(C)(=O)=O)c2)ccc(C#N)c1Cl (stereo not drawn) [Example 21, 2-Chloro-4-[2-(3-methanesulfonyl-phenyl)-pyrrolidin-1-yl]-3-methyl-benzonitrile] | 3 | 58.1 | 103 |  |  |  |  |
| CC1(C)CC(c2ccc3c(c2)OCO3)N(c2ccc(C#N)c(Cl)c2)C1 (stereo not drawn) [Example 24, 4-[2-(1,3-benzodioxol-5-yl)-4,4-dimethylpyrrolidin-1-yl]-2-chlorobenzonitrile] | 12.7 | 23.4 | 397 |  |  |  |  |
| Cc1nnc(C2CCCN2c2ccc(C#N)c(Cl)c2C)o1 (stereo not drawn) [Example 25, 2-chloro-3-methyl-4-[2-(5-methyl-1,3,4-oxadiazol-2-yl)pyrrolidin-1-yl]benzonitrile] | 3.7 | 80.5 | 0.9 |  |  |  |  |
| Cc1c(N2CCCC2c2nnco2)ccc(C#N)c1Cl (stereo not drawn) [Example 26, 2-chloro-3-methyl-4-[2-(1,3,4-oxadiazol-2-yl)-1-pyrrolidinyl]benzonitrile] | 5.4 | 82.7 | 4.2 |  |  |  |  |
| Cc1noc(C2CCCN2c2ccc(C#N)c(Cl)c2C)n1 (stereo not drawn) [Example 27, 2-chloro-3-methyl-4-[2-(3-methyl-1,2,4-oxadiazol-5-yl)pyrrolidin-1-yl]benzonitrile] | 1.9 | 87.6 | 0.5 |  |  |  |  |
| Cc1nnc(C2CCCN2c2ccc(C#N)c(Cl)c2C)s1 (stereo not drawn) [Example 28, 2-chloro-3-methyl-4-[2-(5-methyl-1,3,4-thiadiazol-2-yl)pyrrolidin-1-yl]benzonitrile] | 9 | 74.3 | 24.4 |  |  |  |  |
